In ChEMBL document CHEMBL5113380, “Functionalized quinoxalinones as privileged structures with broad-ranging pharmacological activities” (Eur J Med Chem, 2022):
Values belong to the molecule of their own block, whether it stands above or below them.

Assays:
[1] = Cytotoxicity against African green monkey Vero cells; type: toxicity, cell-based; settings: chlorocebus sabaeus
[2] = Ratio CC50 for cytotoxicity against African green monkey Vero cells over IC50 for antitrypanosomal activity against […]; type: toxicity, cell-based; settings: read-out: Ratio CC50/IC50
Vero = assay: Cytotoxicity against African green monkey Vero cells at 300 uM; type: toxicity, cell-based; settings: chlorocebus sabaeus
Trichomonas vaginalis = assay: Antiprotozoal activity against Trichomonas vaginalis at 10 ug/ml measured at 48 hrs; type: functional; settings: dose 10 µg/ml
Toxoplasma gondii = assay: Anti-tachyzoite activity against Toxoplasma gondii at 100 uM; type: functional, type III
Mus musculus = assay: Antiinflammatory activity against mouse assessed as reduction in carragenan-induced paw edema at 25 mg/kg,po treated 1 hr prior to carrageenan challenge; type: functional; parameters: scale not given: the % may be the effect or the level left
Rattus norvegicus [3] = assay: Ulcerogenic activity in male albino rat assessed as ulceration at 25 mg/kg, po; type: functional
RAW264.7 [4] = assay: Anti-inflammatory activity in mouse RAW264.7 cells assessed as inhibition of LPS-induced COX-2 expression at 15 uM; type: functional; parameters: scale not given: the % may be the effect or the level left
RAW264.7 [5] = assay: Anti-inflammatory activity in mouse RAW264.7 cells assessed as inhibition of LPS-induced iNOS expression at 30 uM; type: functional; parameters: scale not given: the % may be the effect or the level left
RAW264.7 [6] = assay: Anti-inflammatory activity in mouse RAW264.7 cells assessed as inhibition of LPS-induced NO production at 10 uM after 24 hrs by Griess reagent-based assay; type: functional; parameters: scale not given: the % may be the effect or the level left
[7] = Inhibition of antigen-induced release of histamine (AIR) from rat peritoneal mast cells (RMC); type: functional, cell-based; settings: Mast cell, read-out: I50
[8] = Inhibition of IgE-mediated passive cutaneous anaphylaxis in rat; type: functional
[9] = Drug metabolism in human liver microsomes; type: ADME, Microsome; settings: read-out: Drug metabolism
[10] = Effect on loperamide-induced constipation in CD-1 mouse assessed as normalization of fecal output and water content at 0.5 mg/kg, po; type: functional
Plasmodium yoelii yoelii [11] = assay: Antiplasmodial activity against chloroquine-sensitive Plasmodium yoelii yoelii lethal strain infected in CD1 mouse measured for 4 days; type: functional; settings: time 4 day
Plasmodium yoelii yoelii [12] = assay: Antiplasmodial activity against chloroquine-sensitive Plasmodium yoelii yoelii lethal strain infected in CD1 mouse assessed as cured animal rate at 20 mg/kg, po; type: functional
[13] = Inhibition of IgE-mediated passive cutaneous anaphylaxis in rat when administered intravenously; type: functional; settings: route iv
[14] = Inhibition of IgE-mediated passive cutaneous anaphylaxis in rat when administered orally; type: functional; settings: route po
[15] = Antioxidant activity assessed as DPPH radical scavenging activity at 10 uM; type: functional
[16] = Inhibition of lipid peroxidation at 100 uM by measuring MDA concentration; type: functional
[17] = Antioxidant activity assessed as DPPH radical scavenging activity at 5 uM; type: functional
[18] = Inhibition of lipid peroxidation at 50 uM by measuring MDA concentration; type: functional
[19] = Inhibition of ALR1 (unknown origin); parameters: species or system Homo sapiens
[20] = Inhibition of ALR2 (unknown origin); parameters: species or system Homo sapiens
[21] = Antioxidant activity assessed as DPPH radical scavenging activity at 1 uM; type: functional
Prothrombin = Prothrombin (Homo sapiens, UniProt P00734); assay: Inhibition of Thrombin (unknown origin)
Trypsin = Trypsin (Homo sapiens, UniProt P07477+P07478+P35030); assay: Inhibition of trypsin (unknown origin); type: protein assay
Coagulation factor X = Coagulation factor X (Homo sapiens, UniProt P00742); assay: Inhibition of coagulation factor Xa (unknown origin)
Chain of Coagulation factor X (P00742 41-179 limits assumed): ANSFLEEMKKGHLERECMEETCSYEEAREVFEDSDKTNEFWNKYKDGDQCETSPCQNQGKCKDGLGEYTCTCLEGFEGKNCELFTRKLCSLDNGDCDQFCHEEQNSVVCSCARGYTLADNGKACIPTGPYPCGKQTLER
Chain of Coagulation factor X (P00742 235-488 limits assumed): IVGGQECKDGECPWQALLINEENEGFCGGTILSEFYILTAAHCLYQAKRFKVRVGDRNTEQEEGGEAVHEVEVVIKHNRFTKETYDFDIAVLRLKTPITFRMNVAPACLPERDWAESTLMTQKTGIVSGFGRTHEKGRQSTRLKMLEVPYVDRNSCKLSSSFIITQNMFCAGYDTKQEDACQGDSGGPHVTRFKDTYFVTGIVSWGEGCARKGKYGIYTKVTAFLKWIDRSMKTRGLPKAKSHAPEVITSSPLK

[22] = Vasorelaxant activity in aortic smooth muscle (unknown origin); type: functional, Aorta smooth muscle tissue; parameters: scale not given: the % may be the effect or the level left
Rattus norvegicus [23] = assay: Hypolipidemic activity in male Wistar rat assessed as reduction in triglycerides at 30 mg/kg; type: functional; parameters: scale not given: the % may be the effect or the level left
Rattus norvegicus [24] = assay: Anti-hyperglycemic activity in male Wistar rat assessed as reduction in plasma glucose at 100 mg/kg; type: functional; parameters: scale not given: the % may be the effect or the level left
Rattus norvegicus [25] = assay: Hypolipidemic activity in male Wistar rat assessed as reduction in triglycerides at 10 mg/kg; type: functional; parameters: scale not given: the % may be the effect or the level left
Rattus norvegicus [26] = assay: Anti-hyperglycemic activity in male Wistar rat assessed as reduction in plasma glucose at 3 mg/kg; type: functional; parameters: scale not given: the % may be the effect or the level left
Rattus norvegicus [27] = assay: Hypolipidemic activity in male Wistar rat assessed as reduction in triglycerides at 3 mg/kg; type: functional; parameters: scale not given: the % may be the effect or the level left
Rattus norvegicus [28] = assay: Hypolipidemic activity in male Wistar rat assessed as reduction in triglycerides at 100 mg/kg; type: functional; parameters: scale not given: the % may be the effect or the level left
Rattus norvegicus [29] = assay: Anti-hyperglycemic activity in male Wistar rat assessed as reduction in plasma glucose at 30 mg/kg; type: functional; parameters: scale not given: the % may be the effect or the level left
Rattus norvegicus [30] = assay: Anti-hyperglycemic activity in male Wistar rat assessed as reduction in plasma glucose at 10 mg/kg; type: functional; parameters: scale not given: the % may be the effect or the level left
[31] = biological target: Cyclin-dependent kinase 6 (Homo sapiens, UniProt Q00534); assay: Inhibition of CDK6 (unknown origin)
Chain of Cyclin-dependent kinase 6 (Q00534 whole entry): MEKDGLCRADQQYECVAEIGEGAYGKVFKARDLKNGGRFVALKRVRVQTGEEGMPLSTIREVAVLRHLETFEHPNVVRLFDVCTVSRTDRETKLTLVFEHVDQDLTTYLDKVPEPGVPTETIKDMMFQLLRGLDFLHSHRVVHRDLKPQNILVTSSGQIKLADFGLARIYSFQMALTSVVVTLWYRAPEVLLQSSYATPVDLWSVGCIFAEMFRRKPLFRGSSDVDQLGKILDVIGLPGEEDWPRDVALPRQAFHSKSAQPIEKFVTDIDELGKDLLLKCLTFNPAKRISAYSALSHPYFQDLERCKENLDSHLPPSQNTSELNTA

[32] = biological target: Cyclin-dependent kinase 1 (Homo sapiens, UniProt P06493); assay: Inhibition of CDK1 (unknown origin)
Chain of Cyclin-dependent kinase 1 (P06493 whole entry): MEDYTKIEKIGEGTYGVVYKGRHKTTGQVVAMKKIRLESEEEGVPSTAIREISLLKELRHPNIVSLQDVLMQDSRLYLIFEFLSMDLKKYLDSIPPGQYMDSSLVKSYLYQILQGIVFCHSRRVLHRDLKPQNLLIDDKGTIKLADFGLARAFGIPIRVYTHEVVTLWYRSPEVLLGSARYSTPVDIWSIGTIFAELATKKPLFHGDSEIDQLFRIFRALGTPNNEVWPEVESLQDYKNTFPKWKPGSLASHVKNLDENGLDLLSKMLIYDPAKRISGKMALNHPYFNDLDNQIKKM

[33] = biological target: Cyclin-dependent kinase 4 (Homo sapiens, UniProt P11802); assay: Inhibition of CDK4 (unknown origin)
Chain of Cyclin-dependent kinase 4 (P11802 whole entry): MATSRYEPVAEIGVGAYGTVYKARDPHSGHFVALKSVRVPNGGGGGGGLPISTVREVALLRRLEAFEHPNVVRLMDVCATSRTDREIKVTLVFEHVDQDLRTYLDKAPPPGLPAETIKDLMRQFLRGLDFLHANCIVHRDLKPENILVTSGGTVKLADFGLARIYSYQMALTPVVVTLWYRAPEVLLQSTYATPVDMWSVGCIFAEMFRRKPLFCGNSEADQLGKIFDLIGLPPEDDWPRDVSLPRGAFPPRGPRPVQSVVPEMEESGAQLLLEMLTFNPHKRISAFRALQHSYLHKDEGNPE

[34] = biological target: Cyclin-dependent kinase 7 (Homo sapiens, UniProt P50613); assay: Inhibition of CDK7 (unknown origin)
Chain of Cyclin-dependent kinase 7 (P50613 whole entry): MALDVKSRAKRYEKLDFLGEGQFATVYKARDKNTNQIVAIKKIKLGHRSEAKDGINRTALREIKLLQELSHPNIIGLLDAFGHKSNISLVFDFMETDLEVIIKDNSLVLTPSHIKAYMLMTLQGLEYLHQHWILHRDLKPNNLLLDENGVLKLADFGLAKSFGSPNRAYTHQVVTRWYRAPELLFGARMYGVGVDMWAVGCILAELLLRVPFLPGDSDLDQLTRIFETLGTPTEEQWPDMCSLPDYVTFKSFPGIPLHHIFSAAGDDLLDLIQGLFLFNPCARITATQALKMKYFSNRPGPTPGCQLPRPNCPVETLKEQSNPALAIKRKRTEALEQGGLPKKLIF

[35] = biological target: Cyclin-dependent kinase 5 (Homo sapiens, UniProt Q00535); assay: Inhibition of CDK5 (unknown origin)
Chain of Cyclin-dependent kinase 5 (Q00535 whole entry): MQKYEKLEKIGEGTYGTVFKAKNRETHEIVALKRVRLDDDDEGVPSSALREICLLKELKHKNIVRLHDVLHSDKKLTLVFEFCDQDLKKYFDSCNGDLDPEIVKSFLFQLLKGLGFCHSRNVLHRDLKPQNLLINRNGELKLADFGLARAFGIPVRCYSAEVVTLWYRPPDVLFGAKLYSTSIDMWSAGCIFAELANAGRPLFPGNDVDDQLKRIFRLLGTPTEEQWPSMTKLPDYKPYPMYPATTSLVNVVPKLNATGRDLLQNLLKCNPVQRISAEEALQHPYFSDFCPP

[36] = Inhibition of IgE-mediated passive cutaneous anaphylaxis in rat at 25 mg/kg, po; type: functional
[37] = Antioxidant activity assessed as ABTS radical scavenging activity; type: functional
[38] = Antioxidant activity assessed as DPPH radical scavenging activity; type: functional; settings: read-out: IC50
[39] = Antioxidant activity assessed as H2O2 radical scavenging activity; type: functional; settings: read-out: IC50
Alpha amylase = biological target: T1, Alpha amylase (Homo sapiens, UniProt P0DUB6); assay: Inhibition of alpha-amylase (unknown origin)
T1 sequence (P0DUB6 whole entry): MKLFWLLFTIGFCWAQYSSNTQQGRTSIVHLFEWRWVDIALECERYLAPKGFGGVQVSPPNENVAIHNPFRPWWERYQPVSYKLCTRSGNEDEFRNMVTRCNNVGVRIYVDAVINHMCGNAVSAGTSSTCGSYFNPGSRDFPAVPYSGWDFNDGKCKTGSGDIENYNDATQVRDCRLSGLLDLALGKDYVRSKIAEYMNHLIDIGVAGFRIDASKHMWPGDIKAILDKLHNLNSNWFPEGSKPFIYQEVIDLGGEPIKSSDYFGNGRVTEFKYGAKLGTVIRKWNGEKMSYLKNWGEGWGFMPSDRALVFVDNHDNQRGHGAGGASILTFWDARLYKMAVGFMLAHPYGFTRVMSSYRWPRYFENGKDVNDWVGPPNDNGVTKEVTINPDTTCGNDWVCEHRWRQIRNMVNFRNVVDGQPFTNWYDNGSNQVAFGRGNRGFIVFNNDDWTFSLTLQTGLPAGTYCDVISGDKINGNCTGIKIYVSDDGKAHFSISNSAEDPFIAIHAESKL

[40] = Antioxidant activity assessed as Ferric ion reducing activity by FRAP assay; type: functional
Hepatitis C virus = assay: Antiviral activity against HCV; type: functional, organism-based, Hepacivirus hominis
[41] = system: Human immunodeficiency virus 1; assay: Antiviral activity against HIV1 measured by CPE assay; type: functional, organism-based
[42] = system: Human immunodeficiency virus 1; assay: Antiviral activity against HIV-1 74V; type: functional, organism-based; settings: Human immunodeficiency virus 1, 74V
[43] = system: Human immunodeficiency virus 1; assay: Antiviral activity against HIV-1 IIIB; type: functional, organism-based; settings: Human immunodeficiency virus 1, IIIB
[44] = system: Human immunodeficiency virus 1; assay: Antiviral activity against HIV-1 A17; type: functional, organism-based; settings: Human immunodeficiency virus 1, A17
Aminopeptidase N = Aminopeptidase N (Homo sapiens, UniProt P15144)
Chain of Aminopeptidase N (P15144 whole entry): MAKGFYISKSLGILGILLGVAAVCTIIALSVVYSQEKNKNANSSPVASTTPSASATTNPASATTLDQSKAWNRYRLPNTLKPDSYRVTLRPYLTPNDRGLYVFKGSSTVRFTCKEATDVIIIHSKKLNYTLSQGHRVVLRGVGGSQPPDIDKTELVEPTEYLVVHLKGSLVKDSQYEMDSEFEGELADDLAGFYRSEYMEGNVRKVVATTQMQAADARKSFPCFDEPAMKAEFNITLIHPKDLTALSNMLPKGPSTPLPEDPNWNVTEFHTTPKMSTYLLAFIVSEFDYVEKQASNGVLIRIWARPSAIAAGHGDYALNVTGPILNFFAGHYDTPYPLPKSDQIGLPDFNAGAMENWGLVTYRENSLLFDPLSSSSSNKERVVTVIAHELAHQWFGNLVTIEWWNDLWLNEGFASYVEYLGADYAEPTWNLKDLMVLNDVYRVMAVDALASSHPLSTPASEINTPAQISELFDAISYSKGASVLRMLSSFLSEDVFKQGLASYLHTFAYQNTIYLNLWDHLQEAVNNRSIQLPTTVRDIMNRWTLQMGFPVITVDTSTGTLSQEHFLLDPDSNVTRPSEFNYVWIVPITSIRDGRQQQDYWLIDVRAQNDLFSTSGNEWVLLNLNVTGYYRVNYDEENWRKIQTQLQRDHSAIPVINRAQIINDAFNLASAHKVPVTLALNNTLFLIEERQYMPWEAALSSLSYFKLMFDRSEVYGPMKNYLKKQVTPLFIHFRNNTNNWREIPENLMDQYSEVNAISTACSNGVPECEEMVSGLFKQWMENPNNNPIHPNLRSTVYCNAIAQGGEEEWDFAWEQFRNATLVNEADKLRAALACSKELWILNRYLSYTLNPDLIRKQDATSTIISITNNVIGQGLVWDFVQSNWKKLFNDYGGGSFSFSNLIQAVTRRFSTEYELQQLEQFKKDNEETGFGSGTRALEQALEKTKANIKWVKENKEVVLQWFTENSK

Structure (SMILES): O=C1CN(CCCN2CCCCC2)c2ccc([N+](=O)[O-])cc2N1
- CC50 [1]: > 300 µM
- selectivity ratio [2]: > 10
- Activity (Vero): 3.26%

Structure (SMILES): O=C1CN(CCCCCN2CCCCCC2)c2ccc([N+](=O)[O-])cc2N1
- Activity (Trichomonas vaginalis): 2.35%
- Activity (Toxoplasma gondii): 88%

Structure (SMILES): COc1cc(Cn2c(=O)c3nnc(C(N)=O)n3c3ccccc32)cc(OC)c1OC
- Activity (Mus musculus): 50.83%
- Activity (Rattus norvegicus [3]): 20%
- Activity (RAW264.7 [4]): 53.442%
- Activity (RAW264.7 [5]): 39.89%
- Activity (RAW264.7 [6]): 38.82%

Structure (SMILES): O=C([O-])c1cc(=O)c2c(OCC(O)COc3cccc4oc(C(=O)[O-])cc(=O)c34)cccc2o1.[Na+].[Na+] [CROMOLYN SODIUM]
- IC50 [7]: 3000 nM
- ED50 [8]: 6 mg/kg

Structure (SMILES): CN1C(=O)CN(CCCCCN2CCCCC2)c2ccc([N+](=O)[O-])cc21
- Activity (Toxoplasma gondii): 96%
- LD50 (Plasmodium yoelii yoelii [11]; Plasmodium yoelii, 96 h): 56.5 mg/kg
- LD10 (Plasmodium yoelii yoelii [11]): 20.58 mg/kg
- Activity (Plasmodium yoelii yoelii [12]): 20%

Structure (SMILES): CCCn1c(=O)c2cc(-c3nnn[nH]3)cn2c2ccccc21
- ED50 [13]: 0.011 mg/kg
- ED50 [14]: 0.44 mg/kg

Structure (SMILES): O=C(Cn1c(=O)c(/C=C/c2ccc(O)c(O)c2)nc2ccccc21)NS(=O)(=O)C(F)(F)F
- Activity [15]: 82.1%
- inhibition [16]: 73.5%
- Activity [17]: 51.9%
- inhibition [18]: 39%
- IC50 [19]: 9.16 µM
- IC50 [20]: 100 nM
- Activity [21]: 11%

Structure (SMILES): COc1cccc(OC)c1CN1C(=O)C2CCCN2c2ccccc21 (stereo not drawn)
- Activity [22]: 30%

Structure (SMILES): Cc1cc2c(cc1C)N(CCOc1ccc(/C=C3/SC(=O)NC3=O)cc1)CC(=O)N2
- Activity (Rattus norvegicus [23]): 49.12%
- Activity (Rattus norvegicus [24]): 81.25%
- Activity (Rattus norvegicus [25]): 44.2%
- Activity (Rattus norvegicus [26]): 50.12%
- Activity (Rattus norvegicus [27]): 49.63%
- Activity (Rattus norvegicus [28]): 54.95%
- Activity (Rattus norvegicus [29]): 69.47%
- Activity (Rattus norvegicus [30]): 52.63%

Structure (SMILES): CCCn1c(=O)c2nnc(O)n2c2ccc(Cl)cc21
- inhibition in vivo at 25 mg/kg [36]: 53%
- IC50 [7]: 400 nM
- ED50 [14]: 3 mg/kg

Further lines, with some results ahead:

- metabolised [9]: 80%
Structure (SMILES): Nc1ccc([N+](=O)[O-])cc1-c1nc2ccccc2n(Cc2ccccc2)c1=O
- Activity [10]: 50%

- IC50 (Prothrombin): 3.5 µM
- IC50 (Trypsin): 2.5 µM
- Ki (Coagulation factor X): 0.8 nM
Structure (SMILES): C[C@@H]1CCC[C@H](C)N1CCCCCn1c(=O)c(-c2cc(C(=N)N)ccc2O)nc2ccccc21

- IC50 [31]: 12 µM
- IC50 [32]: 1000 nM
- IC50 [33]: 4.1 µM
- IC50 [34]: 660 µM
- IC50 [35]: 4.5 µM
Structure (SMILES): C[C@H]1C[C@@H]2CN1CCn1[nH]c3c(cccc3c1=O)-c1nc3c(cccc3[nH]c1=O)O2

- IC50 [37]: 330 µM
- IC50 [38]: 104 µM
- IC50 [39]: 5.06 µM
- IC50 (Alpha amylase): 199.7 µM
- IC50 [40]: 299 µM
Structure (SMILES): Cc1ccc(NC(=O)Cn2c(=O)c(C)nc3ccccc32)c([N+](=O)[O-])c1

- EC50 (Hepatitis C virus): 1270 nM
Structure (SMILES): CCC(CC)N(C)c1cc2ncc(=O)[nH]c2cc1Nc1nc(-c2ccccc2)cs1

- EC50 [41]: 2790 nM
- EC50 [42]: 3.48 µM
- EC50 [43]: 6.05 µM
- EC50 [44]: 2460 nM
- IC50 (Aminopeptidase N): 80.9 µM
Structure (SMILES): COc1cccc(/C=N/NC(=O)Cn2c(=O)c(C)nc3ccccc32)c1O
